Data on six compounds can be found in patent publication US10611740B2, “Aryl dihydro-2H-benzo[b][1,4]oxazine sulfonamide and related compounds for use as agonists of RORγ and the treatment of disease” (Lycera Corporation, priority 2015, dated 2020).

One assay has as its target T1, RORγ-LBD (Homo sapiens, UniProt P51449).
T1 construct: made in house; host or cells: SF9 cells (baculovirus)
T1 sequence (P51449 269-508 limits assumed): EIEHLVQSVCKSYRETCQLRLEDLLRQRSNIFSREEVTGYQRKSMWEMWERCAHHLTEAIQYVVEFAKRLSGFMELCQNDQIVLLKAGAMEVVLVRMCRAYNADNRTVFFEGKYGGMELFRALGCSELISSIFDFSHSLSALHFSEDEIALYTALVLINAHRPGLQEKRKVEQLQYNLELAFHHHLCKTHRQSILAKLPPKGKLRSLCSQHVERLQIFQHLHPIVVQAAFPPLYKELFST
In words: RORγ-Ligand Binding Domain (LBD) TR-FRET Assay.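 For TR-FRET Assay Max Response: 665/615 nm ratio relative to signal without ursolic acid or compound set at 100.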 It is filed as biochemical. In outline: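 This TR-FRET coactivator assay pairs baculovirus-expressed His-RORγ-LBD (~3 nM final) with biotin-SRC1 LXXLL peptide at 200 nM final in pH 7.0 Tris/KCl/EDTA/DTT/BSA buffer.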
(In TR-FRET formats the signal depends on donor and acceptor labels being close together.)

A further assay concerns the target T2, Gal4-RORγ-LBD (Homo sapiens, UniProt P51449).
T2 construct: expressed in transfected cells; host or cells: HEK-293 cells (pcDNA3.1neo plasmid)
T2 sequence (P51449 269-508 limits assumed): T1 sequence (P51449 269-508 limits assumed)
In words: Gal4-RORγ Luciferase Reporter Assay in HEK-293T Cells. The class given is cell-based. Conditions: HEK-293 cells, luciferase reporter, with 2 μM ursolic acid. The gist of the method: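 Luminescence read-out (One-Glo, 10 min RT) after overnight compound exposure at 37 °C in HEK-293 cells carrying Gal4-RORγ-LBD plus a Gal4-luciferase reporter, in the presence of 2 μM ursolic acid. Max Response is the upper plateau from a 4-parameter logistic fit, normalized to untreated signal = 100.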

Regarding `CCOc1ncc(C(F)(F)F)cc1S(=O)(=O)N1C[C@H](CCC(=O)O)Oc2ccc(-c3cccc(Cl)c3)cc21` [Compound 6D, (S)-3-(6-(3-chlorophenyl)-4-((2-ethoxy-5-(trifluoromethyl)-pyridin-3-yl)sulfonyl)-3,4-dihydro-2H-benzo[b][1,4]-oxazin-2-yl)propanoic acid], on RORγ-LBD, the EC50 is less than 500 nM and the “TR-FRET Assay Max Response” value is “**** (The symbol “****” indicates a value greater than 200)”. Moreover, at Gal4-RORγ-LBD, the EC50 is 500 to 5000 nM and the “Gal4-RORγ Assay Max Response” value is given as “** (The symbol “**” indicates a value in the range of greater than 90 to 150)”.

On to `CC(C)n1cc(-c2ccc3c(c2)N(S(=O)(=O)c2cccc(C(F)(F)F)c2)C[C@H](CCC(=O)O)O3)cn1` [Compound 4AC, (S)-3-(6-(1-isopropyl-1H-pyrazol-4-yl)-4-((3-(trifluoromethyl)phenyl)sulfonyl)-3,4-dihydro-2H-benzo[b][1,4]oxazin-2-yl)propanoic acid], for which, on RORγ-LBD, the EC50 is less than 500 nM and the “TR-FRET Assay Max Response” value was “**** (The symbol “****” indicates a value greater than 200)”. In addition, on Gal4-RORγ-LBD, the EC50 was less than 500 nM and the “Gal4-RORγ Assay Max Response” value was “* (The symbol “*” indicates a value in the range of 25 to 90)”.

On to `O=S(=O)(c1cccc(C(F)(F)F)c1)N1C[C@H](CCCO)Oc2ccc(-c3cccc(Cl)c3)cc21` [Compound 34D, (S)-3-(6-(3-chlorophenyl)-4-((3-(trifluoromethyl)phenyl)sulfonyl)-3,4-dihydro-2H-benzo[b][1,4]-oxazin-2-yl)propan-1-ol], for which, on RORγ-LBD, the EC50 was less than 500 nM and the “TR-FRET Assay Max Response” value was “**** (The symbol “****” indicates a value greater than 200)”. Further, at Gal4-RORγ-LBD, the concentration for a half-maximal effect (EC50) is less than 500 nM and the “Gal4-RORγ Assay Max Response” value is “** (The symbol “**” indicates a value in the range of greater than 90 to 150)”.

`COc1cc(F)cc(-c2ccc3c(c2)N(S(=O)(=O)c2cccc(C(F)(F)F)c2)C[C@H](CCNC(=O)C(C)(C)O)O3)c1F` [Compound 30F, (S)-N-(2-(6-(2,5-difluoro-3-methoxyphenyl)-4-((3-(trifluoromethyl)phenyl)sulfonyl)-3,4-dihydro-2H-benzo[b][1,4]oxazin-2-yl)ethyl)-2-hydroxy-2-methylpropanamide]: on RORγ-LBD, the EC50 is less than 500 nM and the “TR-FRET Assay Max Response” value is listed as “**** (The symbol “****” indicates a value greater than 200)”. Besides, at Gal4-RORγ-LBD, the EC50 is less than 500 nM and the “Gal4-RORγ Assay Max Response” value is “* (The symbol “*” indicates a value in the range of 25 to 90)”.

On to `O=C(O)CC[C@H]1CN(S(=O)(=O)c2cccc(C(F)(F)F)c2)c2cc(-c3cc(C(F)(F)F)cc(F)c3F)ccc2O1` [Compound 4AS, (S)-3-(6-(2,3-difluoro-5-(trifluoromethyl)phenyl)-4-((3-(trifluoromethyl)phenyl)-sulfonyl)-3,4-dihydro-2H-benzo[b][1,4]oxazin-2-yl)propanoic acid], for which, at RORγ-LBD, the EC50 was less than 500 nM and the “TR-FRET Assay Max Response” value is listed as “**** (The symbol “****” indicates a value greater than 200)”. For the same compound, at Gal4-RORγ-LBD, the EC50 was less than 500 nM and the “Gal4-RORγ Assay Max Response” value is listed as “** (The symbol “**” indicates a value in the range of greater than 90 to 150)”.

For `O=C(O)CC[C@H]1CN(S(=O)(=O)c2cccc(C(F)(F)F)c2)c2cc(-c3cccc(O)c3)ccc2O1` [Compound 2AU, (S)-3-(6-(3-hydroxyphenyl)-4-((3-(trifluoromethyl)phenyl)-sulfonyl)-3,4-dihydro-2H-benzo[b][1,4]oxazin-2-yl)propanoic acid], on RORγ-LBD, the EC50 was less than 500 nM and the “TR-FRET Assay Max Response” value is recorded as “*** (The symbol “***” indicates a value in the range of greater than 150 to 200)”. In addition, on Gal4-RORγ-LBD, the EC50 was 500 to 5000 nM and the “Gal4-RORγ Assay Max Response” value is “* (The symbol “*” indicates a value in the range of 25 to 90)”.

The term EC50 denotes the concentration that produces a half-maximal response.
